Reference: PubChem BioAssay AID248 (DTP/NCI, 2004)
“And” between values parts separate entries of the source, which are not always exact repeats. Identical values can stand only once. Inconclusive results and toxic doses are left out.

Test system: L1210 leukemia ip in BDF1 mice, survival T/C
Assay: NCI In Vivo Anticancer Drug Screen. Data for tumor model L1210 Leukemia (intraperitoneal) in B6D2F1 (BDF1) mice
Conditions: endpoint: mean survival time, higher = longer survival
In short: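 Ratio derived from survival: compound-dosed mice over vehicle-dosed mice, all bearing a transplantable tumor.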

[1] = dose: 100.0 mg/kg/injection, schedule: Q04DX002 (ip), vehicle: Klucel (hydroxypropylcellulose) (HPC)
[2] = dose: 200.0 mg/kg/injection, schedule: Q04DX002 (ip), vehicle: Klucel (hydroxypropylcellulose) (HPC)
[3] = dose: 400.0 mg/kg/injection, schedule: Q04DX002 (ip), vehicle: Klucel (hydroxypropylcellulose) (HPC)

`CC1CN1CC(O)C(O)CN1CC1C` (stereo not drawn) was tested, and the T/C (dose: 0.07 mg/kg/injection, schedule: Q01DX Z (ip), vehicle: saline) was 101 % of control, the T/C (dose: 0.07 mg/kg/injection, schedule: Q01DX Z (ip), vehicle: water) was 108 % of control and the T/C (dose: 0.1 mg/kg/injection, schedule: Q01DX Z (ip), vehicle: saline) was 106 % of control. The T/C (dose: 0.1 mg/kg/injection, schedule: Q01DX Z (ip), vehicle: water) was 110 % of control, the T/C (dose: 0.15 mg/kg/injection, schedule: Q01DX Z (ip), vehicle: saline) was 106 % of control and 110 % of control and the T/C (dose: 0.15 mg/kg/injection, schedule: Q01DX Z (ip), vehicle: water) was 118 % of control. The T/C (dose: 0.22 mg/kg/injection, schedule: Q01DX Z (ip), vehicle: saline) was 104 % of control and 114 % of control, the T/C (dose: 0.22 mg/kg/injection, schedule: Q01DX Z (ip), vehicle: water) was 124 % of control and the T/C (dose: 0.26 mg/kg/injection, schedule: Q01DX009 (ip), vehicle: saline) was 160 % of control. The T/C (dose: 0.26 mg/kg/injection, schedule: Q04DX003 (ip), vehicle: saline) was 117 % of control, the T/C (dose: 0.31 mg/kg/injection, schedule: Q01DX001 (ip), vehicle: carboxymethylcellulose (CMC)) was 105 % of control and the T/C (dose: 0.33 mg/kg/injection, schedule: Q01DX015 (ip), vehicle: saline) was 165 % of control. The T/C (dose: 0.33 mg/kg/injection, schedule: Q01DX Z (ip), vehicle: saline) was 121 % of control, the T/C (dose: 0.4 mg/kg/injection, schedule: Q01DX009 (ip), vehicle: saline) was 152 % of control and the T/C (dose: 0.5 mg/kg/injection, schedule: Q01DX001 (ip), vehicle: saline) was 108 % of control. For the same molecule, the T/C (dose: 0.5 mg/kg/injection, schedule: Q01DX015 (ip), vehicle: saline) was 117 % of control, the T/C (dose: 0.6 mg/kg/injection, schedule: Q01DX015 (ip), vehicle: saline) was 163 % of control and the T/C (dose: 0.62 mg/kg/injection, schedule: Q01DX001 (ip), vehicle: carboxymethylcellulose (CMC)) was 121 % of control. The T/C (dose: 1.0 mg/kg/injection, schedule: Q01DX001 (ip), vehicle: saline) was 113 % of control, the T/C (dose: 1.0 mg/kg/injection, schedule: Q01DX015 (ip), vehicle: saline) was 153 % of control and 207 % of control and the T/C (dose: 1.25 mg/kg/injection, schedule: Q01DX001 (ip), vehicle: carboxymethylcellulose (CMC)) was 121 % of control. For the same molecule, the T/C (dose: 1.4 mg/kg/injection, schedule: Q04DX003 (ip), vehicle: saline) was 153 % of control, the T/C (dose: 1.8 mg/kg/injection, schedule: Q01DX015 (ip), vehicle: saline) was 97 % of control and 116 % of control and the T/C (dose: 2.0 mg/kg/injection, schedule: Q01DX015 (ip), vehicle: saline) was 207 % of control and 221 % of control. The T/C (dose: 2.1 mg/kg/injection, schedule: Q04DX003 (ip), vehicle: saline) was 166 % of control, the T/C (dose: 2.5 mg/kg/injection, schedule: Q01DX001 (ip), vehicle: carboxymethylcellulose (CMC)) was 150 % of control and the T/C (dose: 2.5 mg/kg/injection, schedule: Q01DX001 (ip), vehicle: saline) was 152 % of control. The T/C (dose: 3.0 mg/kg/injection, schedule: Q01DX001 (ip), vehicle: saline) was 102 % of control, the T/C (dose: 3.0 mg/kg/injection, schedule: Q01DX015 (ip), vehicle: saline) was 261 % of control and the T/C (dose: 3.3 mg/kg/injection, schedule: Q04DX003 (ip), vehicle: saline) was 160 % of control. For the same molecule, the T/C (dose: 4.0 mg/kg/injection, schedule: Q01DX001 (ip), vehicle: saline) was 157 % of control, the T/C (dose: 4.0 mg/kg/injection, schedule: Q01DX015 (ip), vehicle: saline) was 166 % of control and the T/C (dose: 5.0 mg/kg/injection, schedule: Q01DX001 (ip), vehicle: carboxymethylcellulose (CMC)) was 152 % of control. For the same molecule, the T/C (dose: 5.0 mg/kg/injection, schedule: Q01DX001 (ip), vehicle: saline) was 158 % of control, the T/C (dose: 5.5 mg/kg/injection, schedule: Q01DX001 (ip), vehicle: saline) was 157 % of control and the T/C (dose: 7.5 mg/kg/injection, schedule: Q04DX003 (ip), vehicle: saline) was 95 % of control and 257 % of control. For the same molecule, the T/C (dose: 8.0 mg/kg/injection, schedule: Q01DX015 (ip), vehicle: saline) was 122 % of control and 86 % of control and 87 % of control, the T/C (dose: 10.0 mg/kg/injection, schedule: Q01DX001 (ip), vehicle: carboxymethylcellulose (CMC)) was 236 % of control and the T/C (dose: 10.0 mg/kg/injection, schedule: Q01DX001 (ip), vehicle: saline) was 210 % of control. The T/C (dose: 11.0 mg/kg/injection, schedule: Q01DX001 (ip), vehicle: saline) was 247 % of control and 108 % of control and 116 % of control, the T/C (dose: 15.0 mg/kg/injection, schedule: Q01DX001 (ip), vehicle: saline) was 250 % of control and the T/C (dose: 20.0 mg/kg/injection, schedule: Q01DX001 (ip), vehicle: saline) was 91 % of control. For the same molecule, the T/C (dose: 22.0 mg/kg/injection, schedule: Q01DX001 (ip), vehicle: saline) was 168 % of control, the T/C (dose: 25.0 mg/kg/injection, schedule: Q01DX001 (ip), vehicle: saline) was 120 % of control and the T/C (dose: 30.0 mg/kg/injection, schedule: Q01DX001 (ip), vehicle: saline) was 87 % of control. For the same molecule, the T/C (dose: 41.0 micrograms/kg/injection, schedule: Q01DX015 (ip), vehicle: saline) was 104 % of control, the T/C (dose: 50.0 micrograms/kg/injection, schedule: Q01DX009 (ip), vehicle: saline) was 101 % of control and the T/C (dose: 62.0 micrograms/kg/injection, schedule: Q01DX015 (ip), vehicle: saline) was 108 % of control. The T/C (dose: 75.0 micrograms/kg/injection, schedule: Q01DX009 (ip), vehicle: saline) was 104 % of control, the T/C (dose: 113.0 micrograms/kg/injection, schedule: Q01DX009 (ip), vehicle: saline) was 110 % of control and the T/C (dose: 140.0 micrograms/kg/injection, schedule: Q01DX001 (ip), vehicle: saline) was 113 % of control. For the same molecule, the T/C (dose: 210.0 micrograms/kg/injection, schedule: Q01DX001 (ip), vehicle: saline) was 120 % of control.
`CCOC(=O)C1=C(C)NC(C)=C(C(=O)OCC)C1c1ccccc1Cl` was tested, and the T/C (dose: 100.0 mg/kg/injection, schedule: Q04DX003 (ip), vehicle: saline) was 97 % of control, the T/C (dose: 200.0 mg/kg/injection, schedule: Q04DX003 (ip), vehicle: saline) was 117 % of control and the T/C (dose: 400.0 mg/kg/injection, schedule: Q04DX003 (ip), vehicle: saline) was 87 % of control.
`O=C1CCCCCCCCCCCCCCO1` was tested, and the T/C [1] was 96 % of control, the T/C [2] was 90 % of control and the T/C [3] was 93 % of control.
For `c1ccc(C2=NN(c3ccccc3)CC2)cc1`, the T/C [1] was 106 % of control, the T/C [2] was 98 % of control and the T/C [3] was 106 % of control.
`CC(C)(C)c1ccc2oc(-c3ccc(-c4nc5cc(C(C)(C)C)ccc5o4)s3)nc2c1` was tested, and the T/C (dose: 100.0 mg/kg/injection, schedule: Q04DX003 (ip), vehicle: gum acacia) was 92 % of control and the T/C (dose: 200.0 mg/kg/injection, schedule: Q04DX003 (ip), vehicle: gum acacia) was 99 % of control.
In the case of `COCCCNc1ccc(S(=O)(=O)c2ccc(N)cc2)cc1`, the T/C (dose: 100.0 mg/kg/injection, schedule: Q01DX009 (ip), vehicle: saline with Tween-80) is reported as 103 % of control, the T/C (dose: 200.0 mg/kg/injection, schedule: Q01DX009 (ip), vehicle: saline with Tween-80) is reported as 95 % of control and the T/C (dose: 400.0 mg/kg/injection, schedule: Q01DX009 (ip), vehicle: saline with Tween-80) is reported as 97 % of control.
In the case of `N#Cc1cccc[n+]1Cc1ccc([N+](=O)[O-])cc1`, the T/C (dose: 100.0 mg/kg/injection, schedule: Q04DX003 (ip), vehicle: saline with Tween-80) is reported as 97 % of control.
With `Cn1nc(N)c2nccnc21` the T/C (dose: 50.0 mg/kg/injection, schedule: Q01DX009 (ip), vehicle: saline) was 98 % of control, the T/C (dose: 100.0 mg/kg/injection, schedule: Q01DX009 (ip), vehicle: saline) was 104 % of control and the T/C (dose: 100.0 mg/kg/injection, schedule: Q04DX003 (ip), vehicle: alcohol) was 100 % of control. For the same molecule, the T/C (dose: 200.0 mg/kg/injection, schedule: Q04DX003 (ip), vehicle: alcohol) was 98 % of control.
In the case of `CCSc1nc(=S)cc(C)[nH]1`, the T/C (dose: 100.0 mg/kg/injection, schedule: Q01DX009 (ip), vehicle: Klucel (hydroxypropylcellulose) (HPC)) is reported as 96 % of control, the T/C (dose: 100.0 mg/kg/injection, schedule: Q04DX003 (ip), vehicle: Klucel (hydroxypropylcellulose) (HPC)) is reported as 103 % of control and the T/C (dose: 200.0 mg/kg/injection, schedule: Q01DX009 (ip), vehicle: Klucel (hydroxypropylcellulose) (HPC)) is reported as 91 % of control. The T/C (dose: 200.0 mg/kg/injection, schedule: Q04DX003 (ip), vehicle: Klucel (hydroxypropylcellulose) (HPC)) was 98 % of control, the T/C (dose: 400.0 mg/kg/injection, schedule: Q01DX009 (ip), vehicle: Klucel (hydroxypropylcellulose) (HPC)) was 90 % of control and the T/C (dose: 400.0 mg/kg/injection, schedule: Q04DX003 (ip), vehicle: Klucel (hydroxypropylcellulose) (HPC)) was 87 % of control.
In the case of `COC1OC2COC(c3ccccc3)OC2C(O)C1OC(=S)SSC(=S)OC1C(OC)OC2COC(c3ccccc3)OC2C1O` (stereo not drawn), the T/C (dose: 25.0 mg/kg/injection, schedule: Q04DX002 (ip), vehicle: Klucel (hydroxypropylcellulose) (HPC)) is reported as 89 % of control, the T/C (dose: 50.0 mg/kg/injection, schedule: Q04DX002 (ip), vehicle: Klucel (hydroxypropylcellulose) (HPC)) is reported as 104 % of control and the T/C [1] is reported as 112 % of control.
With `CC(C)=NOC(CC(=O)O)C(=O)O` (stereo not drawn) the T/C (dose: 100.0 mg/kg/injection, schedule: Q04DX002 (ip), vehicle: saline) was 96 % of control, the T/C (dose: 200.0 mg/kg/injection, schedule: Q04DX002 (ip), vehicle: saline) was 96 % of control and the T/C (dose: 400.0 mg/kg/injection, schedule: Q04DX002 (ip), vehicle: saline) was 96 % of control.
